# Legend:
# Test in all cases: relative viability (nuclei count vs DMSO), 5 days (fraction); higher = more cells survive
# Olaparib + Palbociclib = compound: O=C(c1cc(Cc2n[nH]c(=O)c3ccccc23)ccc1F)N1CCN(C(=O)C2CC2)CC1 [Olaparib] + CC(=O)c1c(C)c2cnc(Nc3ccc(N4CCNCC4)cn3)nc2n(C2CCCC2)c1=O [Palbociclib] (partner 0.5 µM)
# Method in brief: (§1)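 Medians of duplicate plates are given as relative viability. That measure is the nuclei count in treated wells divided by the count in vehicle wells. Counts were taken on 4× images of lung cancer cell lines in 1536-well plates, 5 days after pin-tool dosing the day after seeding with one drug alone or a fixed anchor-drug dose plus five library-drug doses (not always all listed) in √10 steps.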
# Carfilzomib + Lapatinib = compound: CC(C)C[C@H](NC(=O)[C@H](CCc1ccccc1)NC(=O)CN1CCOCC1)C(=O)N[C@@H](Cc1ccccc1)C(=O)N[C@@H](CC(C)C)C(=O)[C@@]1(C)CO1 [Carfilzomib] + CS(=O)(=O)CCNCc1ccc(-c2ccc3ncnc(Nc4ccc(OCc5cccc(F)c5)c(Cl)c4)c3c2)o1 [Lapatinib] (partner 2 µM)
# Method in brief: as §1
# Olaparib + Phenformin = compound: O=C(c1cc(Cc2n[nH]c(=O)c3ccccc23)ccc1F)N1CCN(C(=O)C2CC2)CC1 [Olaparib] + N=C(N)NC(=N)NCCc1ccccc1 [Phenformin] (partner 250 µM)
# Method in brief: as §1
# Crizotinib + Olaparib = compound: C[C@@H](Oc1cc(-c2cnn(C3CCNCC3)c2)cnc1N)c1c(Cl)ccc(F)c1Cl [Crizotinib] + O=C(c1cc(Cc2n[nH]c(=O)c3ccccc23)ccc1F)N1CCN(C(=O)C2CC2)CC1 [Olaparib] (partner 8 µM)
# Method in brief: as §1
cell line,measurement,setting,value
HCC-15,relative viability,Olaparib + Palbociclib; first compound 0.08 µM,0.785
same,relative viability,Olaparib + Palbociclib; first compound 0.253 µM,0.659
same,relative viability,Olaparib + Palbociclib; first compound 2.53 µM,0.714
same,relative viability,Olaparib + Palbociclib; first compound 8 µM,0.722
same,relative viability,Carfilzomib + Lapatinib; first compound 0.001 µM,0.857
same,relative viability,Carfilzomib + Lapatinib; first compound 0.003162 µM,0.872
same,relative viability,Carfilzomib + Lapatinib; first compound 0.01 µM,0.918
same,relative viability,Carfilzomib + Lapatinib; first compound 0.03162 µM,0.428
same,relative viability,Carfilzomib + Lapatinib; first compound 0.1 µM,0.176
same,relative viability,Olaparib + Phenformin; first compound 0.08 µM,0.599
same,relative viability,Olaparib + Phenformin; first compound 0.253 µM,0.423
same,relative viability,Olaparib + Phenformin; first compound 2.53 µM,0.445
same,relative viability,Olaparib + Phenformin; first compound 8 µM,0.409
same,relative viability,Crizotinib + Olaparib; first compound 0.01 µM,0.724
same,relative viability,Crizotinib + Olaparib; first compound 0.03162 µM,0.648
same,relative viability,Crizotinib + Olaparib; first compound 0.1 µM,0.712
same,relative viability,Crizotinib + Olaparib; first compound 0.3162 µM,0.76
same,relative viability,Crizotinib + Olaparib; first compound 1 µM,0.772
HCC-44,relative viability,Olaparib + Palbociclib; first compound 0.08 µM,0.998
same,relative viability,Olaparib + Palbociclib; first compound 0.253 µM,0.884
same,relative viability,Olaparib + Palbociclib; first compound 2.53 µM,0.943
same,relative viability,Olaparib + Palbociclib; first compound 8 µM,0.969
same,relative viability,Carfilzomib + Lapatinib; first compound 0.001 µM,1.07
same,relative viability,Carfilzomib + Lapatinib; first compound 0.003162 µM,0.985
same,relative viability,Carfilzomib + Lapatinib; first compound 0.01 µM,1.16
same,relative viability,Carfilzomib + Lapatinib; first compound 0.03162 µM,0.878
same,relative viability,Carfilzomib + Lapatinib; first compound 0.1 µM,0.245
same,relative viability,Olaparib + Phenformin; first compound 0.08 µM,0.208
same,relative viability,Olaparib + Phenformin; first compound 0.253 µM,0.167
same,relative viability,Olaparib + Phenformin; first compound 2.53 µM,0.271
same,relative viability,Olaparib + Phenformin; first compound 8 µM,0.225
same,relative viability,Crizotinib + Olaparib; first compound 0.01 µM,0.923
same,relative viability,Crizotinib + Olaparib; first compound 0.03162 µM,1.04
same,relative viability,Crizotinib + Olaparib; first compound 0.1 µM,1.05
same,relative viability,Crizotinib + Olaparib; first compound 0.3162 µM,0.955
same,relative viability,Crizotinib + Olaparib; first compound 1 µM,1
HCC-78,relative viability,Olaparib + Palbociclib; first compound 0.08 µM,0.414
same,relative viability,Olaparib + Palbociclib; first compound 0.253 µM,0.424
same,relative viability,Olaparib + Palbociclib; first compound 2.53 µM,0.486
same,relative viability,Olaparib + Palbociclib; first compound 8 µM,0.464
same,relative viability,Carfilzomib + Lapatinib; first compound 0.001 µM,0.791
same,relative viability,Carfilzomib + Lapatinib; first compound 0.003162 µM,0.701
same,relative viability,Carfilzomib + Lapatinib; first compound 0.01 µM,0.9
same,relative viability,Carfilzomib + Lapatinib; first compound 0.03162 µM,0.165
same,relative viability,Carfilzomib + Lapatinib; first compound 0.1 µM,0.142
same,relative viability,Olaparib + Phenformin; first compound 0.08 µM,0.72
same,relative viability,Olaparib + Phenformin; first compound 0.253 µM,0.66
same,relative viability,Olaparib + Phenformin; first compound 2.53 µM,0.756
same,relative viability,Olaparib + Phenformin; first compound 8 µM,0.714
same,relative viability,Crizotinib + Olaparib; first compound 0.01 µM,0.737
same,relative viability,Crizotinib + Olaparib; first compound 0.03162 µM,0.646
same,relative viability,Crizotinib + Olaparib; first compound 0.1 µM,0.705
same,relative viability,Crizotinib + Olaparib; first compound 0.3162 µM,0.681
same,relative viability,Crizotinib + Olaparib; first compound 1 µM,0.837
HCC-366,relative viability,Olaparib + Palbociclib; first compound 0.08 µM,0.39
same,relative viability,Olaparib + Palbociclib; first compound 0.253 µM,0.263
same,relative viability,Olaparib + Palbociclib; first compound 2.53 µM,0.26
same,relative viability,Olaparib + Palbociclib; first compound 8 µM,0.168
same,relative viability,Carfilzomib + Lapatinib; first compound 0.001 µM,0.941
same,relative viability,Carfilzomib + Lapatinib; first compound 0.003162 µM,1.02
same,relative viability,Carfilzomib + Lapatinib; first compound 0.01 µM,0.963
same,relative viability,Carfilzomib + Lapatinib; first compound 0.03162 µM,0.305
same,relative viability,Carfilzomib + Lapatinib; first compound 0.1 µM,0.0207
same,relative viability,Olaparib + Phenformin; first compound 0.08 µM,0.768
same,relative viability,Olaparib + Phenformin; first compound 0.253 µM,0.583
same,relative viability,Olaparib + Phenformin; first compound 2.53 µM,0.489
same,relative viability,Olaparib + Phenformin; first compound 8 µM,0.413
same,relative viability,Crizotinib + Olaparib; first compound 0.01 µM,0.357
same,relative viability,Crizotinib + Olaparib; first compound 0.03162 µM,0.357
same,relative viability,Crizotinib + Olaparib; first compound 0.1 µM,0.329
same,relative viability,Crizotinib + Olaparib; first compound 1 µM,0.356
HCC-827,relative viability,Olaparib + Palbociclib; first compound 0.08 µM,0.534
same,relative viability,Olaparib + Palbociclib; first compound 0.253 µM,0.494
same,relative viability,Olaparib + Palbociclib; first compound 2.53 µM,0.474
same,relative viability,Olaparib + Palbociclib; first compound 8 µM,0.387
same,relative viability,Carfilzomib + Lapatinib; first compound 0.001 µM,0.175
same,relative viability,Carfilzomib + Lapatinib; first compound 0.003162 µM,0.164
same,relative viability,Carfilzomib + Lapatinib; first compound 0.01 µM,0.166
same,relative viability,Carfilzomib + Lapatinib; first compound 0.03162 µM,0.258
same,relative viability,Carfilzomib + Lapatinib; first compound 0.1 µM,0.154
same,relative viability,Olaparib + Phenformin; first compound 0.08 µM,0.361
same,relative viability,Olaparib + Phenformin; first compound 0.253 µM,0.372
same,relative viability,Olaparib + Phenformin; first compound 2.53 µM,0.398
same,relative viability,Olaparib + Phenformin; first compound 8 µM,0.35
same,relative viability,Crizotinib + Olaparib; first compound 0.01 µM,0.618
same,relative viability,Crizotinib + Olaparib; first compound 0.03162 µM,0.58
same,relative viability,Crizotinib + Olaparib; first compound 0.1 µM,0.637
same,relative viability,Crizotinib + Olaparib; first compound 0.3162 µM,0.517
same,relative viability,Crizotinib + Olaparib; first compound 1 µM,0.655
HOP-62,relative viability,Olaparib + Palbociclib; first compound 0.08 µM,0.469
same,relative viability,Olaparib + Palbociclib; first compound 0.253 µM,0.454
same,relative viability,Olaparib + Palbociclib; first compound 2.53 µM,0.361
same,relative viability,Olaparib + Palbociclib; first compound 8 µM,0.319
same,relative viability,Carfilzomib + Lapatinib; first compound 0.001 µM,1.16
same,relative viability,Carfilzomib + Lapatinib; first compound 0.003162 µM,1.21
same,relative viability,Carfilzomib + Lapatinib; first compound 0.01 µM,1.06
same,relative viability,Carfilzomib + Lapatinib; first compound 0.03162 µM,0.308
same,relative viability,Carfilzomib + Lapatinib; first compound 0.1 µM,0.0688
same,relative viability,Olaparib + Phenformin; first compound 0.08 µM,0.783
same,relative viability,Olaparib + Phenformin; first compound 0.253 µM,0.644
same,relative viability,Olaparib + Phenformin; first compound 2.53 µM,0.762
same,relative viability,Olaparib + Phenformin; first compound 8 µM,0.478
same,relative viability,Crizotinib + Olaparib; first compound 0.01 µM,0.38
same,relative viability,Crizotinib + Olaparib; first compound 0.03162 µM,0.415
same,relative viability,Crizotinib + Olaparib; first compound 0.1 µM,0.479
same,relative viability,Crizotinib + Olaparib; first compound 0.3162 µM,0.316
same,relative viability,Crizotinib + Olaparib; first compound 1 µM,0.504
IA-LM,relative viability,Carfilzomib + Lapatinib; first compound 0.001 µM,0.846
same,relative viability,Carfilzomib + Lapatinib; first compound 0.003162 µM,0.667
same,relative viability,Carfilzomib + Lapatinib; first compound 0.01 µM,0.434
same,relative viability,Carfilzomib + Lapatinib; first compound 0.03162 µM,0.0463
same,relative viability,Carfilzomib + Lapatinib; first compound 0.1 µM,0.081
same,relative viability,Crizotinib + Olaparib; first compound 0.01 µM,0.797
same,relative viability,Crizotinib + Olaparib; first compound 0.03162 µM,0.844
same,relative viability,Crizotinib + Olaparib; first compound 0.1 µM,0.821
same,relative viability,Crizotinib + Olaparib; first compound 0.3162 µM,0.691
same,relative viability,Crizotinib + Olaparib; first compound 1 µM,0.73
LC-2-ad,relative viability,Olaparib + Palbociclib; first compound 0.08 µM,0.472
same,relative viability,Olaparib + Palbociclib; first compound 0.253 µM,0.451
same,relative viability,Olaparib + Palbociclib; first compound 2.53 µM,0.493
same,relative viability,Olaparib + Palbociclib; first compound 8 µM,0.399
same,relative viability,Carfilzomib + Lapatinib; first compound 0.001 µM,0.861
same,relative viability,Carfilzomib + Lapatinib; first compound 0.003162 µM,1.14
same,relative viability,Carfilzomib + Lapatinib; first compound 0.01 µM,0.984
same,relative viability,Carfilzomib + Lapatinib; first compound 0.03162 µM,0.153
same,relative viability,Carfilzomib + Lapatinib; first compound 0.1 µM,0.12
same,relative viability,Olaparib + Phenformin; first compound 0.08 µM,0.75
same,relative viability,Olaparib + Phenformin; first compound 0.253 µM,0.508
same,relative viability,Olaparib + Phenformin; first compound 2.53 µM,0.533
same,relative viability,Olaparib + Phenformin; first compound 8 µM,0.607
same,relative viability,Crizotinib + Olaparib; first compound 0.01 µM,0.806
same,relative viability,Crizotinib + Olaparib; first compound 0.03162 µM,0.689
same,relative viability,Crizotinib + Olaparib; first compound 0.1 µM,0.712
same,relative viability,Crizotinib + Olaparib; first compound 1 µM,0.751

# — the supplement of paper PMC10307832
